# Experimental data reported in patent US10023543B2 (CELGENE QUANTICEL RESEARCH, INC., priority 2014, dated 2018).
# Tested on: Kasumi-1
# Assay: Kasumi-1 AML cell line proliferation assay (Cell-MTS assay)
# Assay type: cell-based
# Settings: Homo sapiens, 168 hours
# Text: Colorimetric cellular assay to assess the ability of LSD-1 small molecule inhibitors to effect the proliferation of the established AML cancer cell line Kasumi-1.
# This Cell-MTS assay is a 7-day plate based colorimetric assay which quantifies the amount of newly generated NADH in the presence and absence of test compound. These NADH levels are used as a proxy for the quantification of cancer cell proliferation.
# The established cancer cell line Kasumi-1 with a verified p53 mutation were purchased from American Type Culture Collection (ATCC) and routinely passaged according to ATCC published protocols. For routine assay these cells were seeded at a density of 20,000 cells per 96-well. […] At the end of this compound incubation period, 80 μl of media is removed and 20 μL of CellTiter 96® AQueous Non-Radioactive Cell Proliferation Assay solution (Promega) is added. The cells are incubated until the OD490 is >0.6. IC50 values are calculated using the IDBS XLfit software package and include background subtracted OD490 values and normalization to DMSO controls.
row,SMILES,IC50
1,"CNC1CCN(c2nc(-c3ccc(C#N)c(F)c3)c(-c3ccc4nn(C)cc4c3)c(=O)n2C)CC1 [Example 65, 2-fluoro-4-[1-methyl-2-(4-methylamino-piperidin-1-yl)-5-(2-methyl-2H-indazol-5-yl)-6-oxo-1,6-dihydro-pyrimidin-4-yl]-benzonitrile]",< 0.1 µM
2,"COc1ccc(-c2c(-c3ccc(C#N)c(F)c3)nc(N3CCC(N)CC3)n(C)c2=O)cn1 [Example 8, 4-[2-(4-amino-piperidin-1-yl)-5-(6-methoxy-pyridin-3-yl)-1-methyl-6-oxo-1,6-dihydro-pyrimidin-4-yl]-2-fluoro-benzonitrile]",< 0.1 µM

# Tested on: THP-1 (AML) cells
# Assay: LSD1 CD11b cellular assay (flow cytometry)
# Assay type: cell-based
# Settings: Homo sapiens, THP-1, 96 h; CD11b expressing cells, 4 days; read-out: THP-1 IC50
row,SMILES,IC50
1,"CNC1CCN(c2nc(-c3ccc(C#N)c(F)c3)c(-c3ccc4nn(C)cc4c3)c(=O)n2C)CC1 [Example 65, 2-fluoro-4-[1-methyl-2-(4-methylamino-piperidin-1-yl)-5-(2-methyl-2H-indazol-5-yl)-6-oxo-1,6-dihydro-pyrimidin-4-yl]-benzonitrile]",< 0.1 µM
2,"COc1ccc(-c2c(-c3ccc(C#N)c(F)c3)nc(N3CCC(N)CC3)n(C)c2=O)cn1 [Example 8, 4-[2-(4-amino-piperidin-1-yl)-5-(6-methoxy-pyridin-3-yl)-1-methyl-6-oxo-1,6-dihydro-pyrimidin-4-yl]-2-fluoro-benzonitrile]",< 0.1 µM
3,"Cn1c(N2CCC(N)CC2)nc(-c2ccc(C#N)c(F)c2)c(-c2cc(F)cc(F)c2)c1=O [Example 103, 4-[2-(4-aminopiperidin-1-yl)-5-(3,5-difluorophenyl)-1-methyl-6-oxopyrimidin-4-yl]-2-fluorobenzonitrile]",< 0.1 µM
4,"CN(C)c1ccc(-c2c(-c3ccc(C#N)c(F)c3)nc(N3CCC(N)CC3)n(C)c2=O)cn1 [Example 57, 4-[2-(4-amino-piperidin-1-yl)-5-(6-dimethylamino-pyridin-3-yl)-1-methyl-6-oxo-1,6-dihydro-pyrimidin-4-yl]-2-fluoro-benzonitrile]",< 0.1 µM
5,"COc1ccc(-c2c(-c3ccc(C#N)c(F)c3)nc(N3CCC[C@@H](N)C3)n(C)c2=O)cc1F [Example 25, 4-[2-((3R)-3-aminopiperidyl)-5-(3-fluoro-4-methoxyphenyl)-1-methyl-6-oxohydropyrimidin-4-yl]-2-fluorobenzenecarbonitrile]",< 0.1 µM
6,"Cn1c(N2CCC(N)CC2)nc(-c2ccc(C#N)c(F)c2)c(-c2ccc(F)c(F)c2)c1=O [Example 104, 4-[2-(4-aminopiperidin-1-yl)-5-(3,4-difluorophenyl)-1-methyl-6-oxopyrimidin-4-yl]-2-fluorobenzonitrile]",< 0.1 µM
7,"Cn1c(N2CCC(N)CC2)nc(-c2ccc(C#N)cc2)c(-c2ccc(OCCO)cc2)c1=O [Example 97, 4-[2-(4-aminopiperidin-1-yl)-5-[4-(2-hydroxyethoxy)phenyl]-1-methyl-6-oxopyrimidin-4-yl]benzonitrile]",< 0.1 µM
8,"COc1ccc(-c2c(-c3ccc(C#N)c(F)c3)nc(N3CCC(N)CC3)n(CC(=O)O)c2=O)cc1 [Example 15, [2-(4-amino-piperidin-1-yl)-4-(4-cyano-3-fluoro-phenyl)-5-(4-methoxy-phenyl)-6-oxo-6H-pyrimidin-1-yl]-acetic acid]",1 to 10 µM
9,"COc1ccc(-c2c(-c3ccc(C#N)c(F)c3)nc(NC3CCNCC3)n(C)c2=O)cc1 [Example 53, 2-fluoro-4-[5-(4-methoxy-phenyl)-1-methyl-6-oxo-2-(piperidin-4-ylamino)-1,6-dihydro-pyrimidin-4-yl]-benzonitrile]",0.1 to 1 µM
10,"CNCC1CN(c2nc(-c3ccc(C#N)c(F)c3)c(-c3ccc(OC)cc3)c(=O)n2C)C1 [Example 70, 2-fluoro-4-[5-(4-methoxy-phenyl)-1-methyl-2-(3-methylaminomethyl-azetidin-1-yl)-6-oxo-1,6-dihydro-pyrimidin-4-yl]-benzonitrile]",< 0.1 µM
11,"COc1ccc(-c2c(-c3ccc(C#N)c(F)c3)nc(N3CCC(C)(N)CC3)n(C)c2=O)cc1F [Example 32, 4-[2-(4-amino-4-methyl-piperidin-1-yl)-5-(3-fluoro-4-methoxy-phenyl)-1-methyl-6-oxo-1,6-dihydro-pyrimidin-4-yl]-2-fluoro-benzonitrile]",< 0.1 µM
12,"CN(C)c1ncc(-c2c(-c3ccc(C#N)c(F)c3)nc(N3CCC(N(C)C)CC3)n(C)c2=O)cn1 [Example 81, 4-[2′-dimethylamino-2-(4-dimethylamino-piperidin-1-yl)-1-methyl-6-oxo-1,6-dihydro-[5,5′]bipyrimidinyl-4-yl]-2-fluoro-benzonitrile]",0.1 to 1 µM
13,"COCCOc1ccc(-c2c(-c3ccc(C#N)c(F)c3)nc(N3CCC(N)CC3)n(C)c2=O)cc1 [Example 98, 4-[2-(4-aminopiperidin-1-yl)-5-[4-(2-methoxyethoxy)phenyl]-1-methyl-6-oxopyrimidin-4-yl]-2-fluorobenzonitrile]",< 0.1 µM
14,"COc1ccc(-c2c(-c3ccc(C#N)cc3)nc(NC[C@@H]3CCNC3)n(C)c2=O)cc1F [Example 45, 4-{5-(3-fluoro-4-methoxy-phenyl)-1-methyl-6-oxo-2-[(3R)-(pyrrolidin-3-ylmethyl)-amino]-1,6-dihydro-pyrimidin-4-yl}-benzonitrile]",0.1 to 1 µM
15,"CNc1ccc(-c2c(-c3ccc(C#N)c(F)c3)nc(N3CCC(N)CC3)n(C)c2=O)cc1F [Example 91, 4-[2-(4-aminopiperidin-1-yl)-5-[3-fluoro-4-(methylamino)phenyl]-1-methyl-6-oxopyrimidin-4-yl]-2-fluorobenzonitrile]",< 0.1 µM
16,"COc1ccc(-c2c(-c3ccc(C#N)cc3)nc(NC[C@H]3CCNC3)n(C)c2=O)cc1F [Example 44, 4-{5-(3-fluoro-4-methoxy-phenyl)-1-methyl-6-oxo-2-[(3S)-(pyrrolidin-3-ylmethyl)-amino]-1,6-dihydro-pyrimidin-4-yl}-benzonitrile]",0.1 to 1 µM

row,SMILES,IC50
1,"COc1ccc(-c2c(-c3ccc(C#N)c(F)c3)nc(N3CCC(N)CC3)[nH]c2=O)cc1 [Example 122, 4-[2-(4-amino-piperidin-1-yl)-5-(4-methoxy-phenyl)-6-oxo-1,6-dihydro-pyrimidin-4-yl]-2-fluoro-benzonitrile]",< 0.1 µM
2,"CNC1CCN(c2nc(-c3ccc(C#N)c(F)c3)c(-c3ccc(OC)nc3)c(=O)n2C)CC1 [Example 58, 2-fluoro-4-[5-(6-methoxy-pyridin-3-yl)-1-methyl-2-(4-methylamino-piperidin-1-yl)-6-oxo-1,6-dihydro-pyrimidin-4-yl]-benzonitrile]",< 0.1 µM
3,"CCOc1ccc(-c2c(-c3ccc(C#N)c(F)c3)nc(N3CCC(N)CC3)n(C)c2=O)cn1 [Example 94, 4-[2-(4-aminopiperidin-1-yl)-5-(6-ethoxypyridin-3-yl)-1-methyl-6-oxopyrimidin-4-yl]-2-fluorobenzonitrile]",< 0.1 µM
4,"COc1ccc(-c2c(-c3ccc(C#N)c(F)c3)nc(N3CCC(N(C)C)CC3)n(C)c2=O)cn1 [Example 92, 4-[2-[4-(dimethylamino)piperidin-1-yl]-5-(6-methoxypyridin-3-yl)-1-methyl-6-oxopyrimidin-4-yl]-2-fluorobenzonitrile]",< 0.1 µM
5,"Cn1c(N2CCC(N)CC2)nc(-c2ccc(C#N)c(F)c2)c(Cl)c1=O [Example 20, 4-[2-(4-aminopiperidin-1-yl)-5-chloro-1-methyl-6-oxopyrimidin-4-yl]-2-fluorobenzonitrile]",0.1 to 1 µM
6,"COc1ccc(-c2c(-c3ccc(Cl)c(F)c3)nc(N3CCC(N)CC3)n(C)c2=O)cc1 [Example 111, 2-(4-amino-piperidin-1-yl)-6-(4-chloro-3-fluoro-phenyl)-5-(4-methoxy-phenyl)-3-methyl-3H-pyrimidin-4-one]",0.1 to 1 µM
7,"CCOc1ncc(-c2c(-c3ccc(C#N)c(F)c3)nc(N3CCC(N)CC3)n(C)c2=O)cc1F [Example 93, 4-[2-(4-aminopiperidin-1-yl)-5-(6-ethoxy-5-fluoropyridin-3-yl)-1-methyl-6-oxopyrimidin-4-yl]-2-fluorobenzonitrile]",< 0.1 µM
8,"Cn1c(N2CCC(N)CC2)nc(-c2ccc(C#N)c(F)c2)c(-c2ccc3c(ccn3C)c2)c1=O [Example 74, 4-[2-(4-amino-piperidin-1-yl)-1-methyl-5-(1-methyl-1H-indol-5-yl)-6-oxo-1,6-dihydro-pyrimidin-4-yl]-2-fluoro-benzonitrile]",< 0.1 µM
9,"Cn1c(N2CCC(N)CC2)nc(-c2ccc(C#N)cc2)c(-c2ccc(C(N)=O)c(F)c2)c1=O [Example 41, 4-[2-(4-aminopiperidyl)-6-(4-cyanophenyl)-3-methyl-4-oxo(3-hydropyrimidin-5-yl)]-2-fluorobenzamide]",0.1 to 1 µM
10,"COc1ccc(-c2c(-c3ccc(C#N)c(F)c3)nc(N3CCC(N)CC3)n(CC(N)=O)c2=O)cc1 [Example 16, 2-[2-(4-amino-piperidin-1-yl)-4-(4-cyano-3-fluoro-phenyl)-5-(4-methoxy-phenyl)-6-oxo-6H-pyrimidin-1-yl]-acetamide]",< 0.1 µM
11,"Cn1c(N2CCC(N)CC2)nc(-c2ccc(C#N)c(F)c2)c(-c2ccc(F)cc2)c1=O [Example 101, 4-[2-(4-aminopiperidin-1-yl)-5-(4-fluorophenyl)-1-methyl-6-oxopyrimidin-4-yl]-2-fluorobenzonitrile]",< 0.1 µM
12,COc1ccc(-c2c(-c3ccc(C#N)cc3)nc(N3CCCNCC3)n(C)c2=O)cn1 [Example 62],0.1 to 1 µM
13,"COc1c(F)cc(-c2c(-c3ccc(C#N)cc3)nc(N3CCC(N)CC3)n(C)c2=O)cc1F [Example 38, 4-[2-(4-aminopiperidyl)-5-(3,5-difluoro-4-methoxyphenyl)-1-methyl-6-oxohydropyrimidin-4-yl]benzenecarbonitrile]",< 0.1 µM
14,"Cn1c(N2CCC(N)CC2)nc(-c2ccc(C#N)cc2)c(-c2ccc3c(cnn3C)c2)c1=O [Example 33, 4-[2-(4-aminopiperidyl)-1-methyl-5-(1-methyl(1H-indazol-5-yl))-6-oxohydropyrimidin-4-yl]benzenecarbonitrile]",< 0.1 µM
15,"COc1ccc(-c2c(-c3ccc(C#N)c(F)c3)nc(N3CCCNCC3)n(C)c2=O)cn1 [Example 61, 4-[2-[1,4]diazepan-1-yl-5-(6-methoxy-pyridin-3-yl)-1-methyl-6-oxo-1,6-dihydro-pyrimidin-4-yl]-2-fluoro-benzonitrile]",< 0.1 µM
